We go through one compound from article PMC6844378, “Structure activity relationship studies on Amb639752: toward the identification of a common pharmacophoric structure for DGKα inhibitors” (Journal of Enzyme Inhibition and Medicinal Chemistry, 2019).

One assay has as its target T1, DGKζ (Homo sapiens, UniProt Q13574).
T1 construct: expressed in transfected cells; host or cells: 293T cells, transient transfection (Lipofectamine 3000), crude homogenate
Put plainly: Isoform specificity, DGKζ homogenates of transfected 293T cells. It counts as biochemical. To be noted: 100 µM; 293T homogenates. As for the experimental part: 293T cells were transiently transfected with indicated DGK isoform plasmid DNA using Lipofectamine 3000, Invitrogen (Carlsbad, CA). Forty eight hours after transfection, cells were harvested and homogenised with a 29 G-needle using 500 µL of homogenate buffer for each dish and immediately stored in aliquots at –80 °C. Cells transfected with empty vector were used as controls, overexpressed DGK has an activity >50 folds the endogenous.
Essentionally, the same procedure was followed as reported previously in Velnati et al.[9] In brief, DGK activity was assayed by measuring initial velocities (5 min at 27 °C) in presence of saturating substrate concentrations. Reaction conditions: 0.9 µg/µL 1,2-dioleoyl-sn-glycerol, 5 mM ATP, 0.01 µCi/µL [γ^32P]-ATP, 1 mM sodium orthovanadate, 10 mM MgCl2, 1.2 mM EGTA in 7.5 mM Hepes pH 8[12]. Reaction mixture is assembled mixing enzyme (24.5 µL of homogenate), 100× inhibitor or DMSO (0.5 µL), 5× ATP solution (10 µL of 25 mM ATP, 0.05 µCi/µL [γ^32P]-ATP (Perkin-Elmer, Milan, Italy), 5 mM sodium orthovanadate, 50 mM MgCl2), and 3.3× DAG solution (15 µL of 3 µg/µL 1,2-dioleoyl-sn-glycerol resuspended by sonication in 4 mM EGTA in 25 mM Hepes pH 8). […] TLC was run 10 cm and dried before radioactive signals were detected by GS-250 molecular imager and was quantified by quantity one (Bio-Rad, Hercules, CA) software assuring the absence of saturated spots. […]

In assay [1] the test system is serotonin receptors. In words: Superoxide anion production: serotonin effect on PMA-induced oxidative burst in monocytes. It counts as cell-based. To be noted: drugs 10 µM, 1 h; serotonin 1 µM; PMA 1 µM 30 min; human monocytes. As for the experimental part: Human monocytes were isolated from healthy anonymous human buffy coats (provided by the Transfusion Service of Ospedale Maggiore della Carità, Novara, Italy) by the standard technique of dextran sedimentation and Histopaque (density = 1.077 g cm^3, Sigma-Aldrich, Milano, Italy) gradient centrifugation (400×g, 30 min, room temperature) and recovered by fine suction at the interface, as described previously. Purified monocytes populations were obtained by adhesion (90 min, 37 °C, 5% CO2) in serum-free RPMI 1640 medium (Sigma-Aldrich, Milano, Italy) supplemented with 2 mM glutamine and antibiotics. Cell viability (trypan blue dye exclusion) was usually >98%.
All the experiments were performed in triplicate using cells isolated from each single donor.
Monocytes (250,000 cells/well) were treated for 1 h with the indicated drugs (10 µM) with or without serotonin (1 µM). Then, cells were stimulated with phorbol 12-myristate 13-acetate (PMA; Sigma-Aldrich, Milano, Italy) 1 µM for 30 min. PMA is a well-known stimulus that induces a strong and significant respiratory burst via PKC activation. Superoxide anion production was then evaluated by the superoxide dismutase (SOD)-sensitive cytochrome C (CytC) reduction assay and expressed as nmoles CytC reduced/10^6 cells/30 min, using an extinction coefficient of 21.1 mM. To avoid interference with spectrophotometrical recordings, cells were incubated with RPMI 1640 without phenol red, antibiotics, and FBS.
To this purpose, we measured the effect of serotonin on PMA-induced oxidative burst in human monocytes. As previously shown, 1 µM serotonin reverses the oxidative burst to control values.
Figure 8. […] Results are expressed as n moles of reduced cytochrome C/10^6 cells. Data are means ± SEM of 10 independent experiments performed in triplicate.

Assay [2] deals with serotonin receptors. Also on record: method as in PMID 30611057. To be noted: cited from earlier work.

Entries after “also recorded” stand apart in the source; their conditions may differ.

T1 sequence (Q13574 whole entry, species assumed): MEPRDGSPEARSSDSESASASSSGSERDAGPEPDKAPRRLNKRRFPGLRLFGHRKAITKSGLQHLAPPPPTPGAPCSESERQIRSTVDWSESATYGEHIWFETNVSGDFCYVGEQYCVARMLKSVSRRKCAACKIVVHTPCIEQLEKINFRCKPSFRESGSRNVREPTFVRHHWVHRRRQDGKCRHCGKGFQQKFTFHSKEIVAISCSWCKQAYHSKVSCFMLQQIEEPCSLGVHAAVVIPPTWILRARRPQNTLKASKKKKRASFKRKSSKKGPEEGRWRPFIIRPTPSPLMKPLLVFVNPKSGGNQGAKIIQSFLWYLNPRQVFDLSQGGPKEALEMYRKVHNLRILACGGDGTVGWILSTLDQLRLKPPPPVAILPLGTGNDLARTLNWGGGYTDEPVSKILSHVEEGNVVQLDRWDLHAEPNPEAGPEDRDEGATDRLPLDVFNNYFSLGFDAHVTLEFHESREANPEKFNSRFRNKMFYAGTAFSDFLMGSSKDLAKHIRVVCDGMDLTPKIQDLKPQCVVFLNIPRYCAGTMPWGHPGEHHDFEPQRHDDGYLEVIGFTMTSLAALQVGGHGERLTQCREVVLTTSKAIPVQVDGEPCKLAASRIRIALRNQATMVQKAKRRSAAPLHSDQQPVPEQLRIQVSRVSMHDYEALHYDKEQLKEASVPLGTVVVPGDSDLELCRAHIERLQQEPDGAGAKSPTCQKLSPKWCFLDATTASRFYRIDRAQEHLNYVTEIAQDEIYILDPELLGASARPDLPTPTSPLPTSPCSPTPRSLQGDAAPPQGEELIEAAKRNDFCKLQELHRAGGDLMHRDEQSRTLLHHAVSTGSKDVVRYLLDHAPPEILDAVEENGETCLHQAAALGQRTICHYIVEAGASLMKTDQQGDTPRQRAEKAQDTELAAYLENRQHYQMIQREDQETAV

With `Cc1ccc2c(C(=O)CN3CCN(C(=O)c4ccco4)CC3)c(C)[nH]c2c1` [Amb639752], on DGKζ, the “effect on DGKζ activity” value is given as “do not have significant effects”. In addition, the “effect on serotonin action on PMA-induced oxidative burst” value in the assay on serotonin receptors [1] is listed as “had no effect”. Besides, the anti-serotoninergic activity result in the assay on serotonin receptors [2] is given as “no effects on serotonin activity; also recorded: devoid of anti-serotoninergic activity”.
